Patent US11066399B2, “Ferroportin inhibitors” (Vifor (International) AG, priority 2015, dated 2021)
Marks after values point to notes of the source that are not given here.

What was measured:
[1] = target: T1, ferroportin (Fpn) (Mus musculus, UniProt Q9JHI9); experiment: Hepcidin Internalization Assay (J774); format: cell-based; conditions: average (AVE) of multiple measurements; TMR-hepcidin 25 nM, J774 cells
T1 construct: host or cells: J774 mouse macrophage cell line, Fe(III)-NTA induced
T1 sequence (Q9JHI9 1-570): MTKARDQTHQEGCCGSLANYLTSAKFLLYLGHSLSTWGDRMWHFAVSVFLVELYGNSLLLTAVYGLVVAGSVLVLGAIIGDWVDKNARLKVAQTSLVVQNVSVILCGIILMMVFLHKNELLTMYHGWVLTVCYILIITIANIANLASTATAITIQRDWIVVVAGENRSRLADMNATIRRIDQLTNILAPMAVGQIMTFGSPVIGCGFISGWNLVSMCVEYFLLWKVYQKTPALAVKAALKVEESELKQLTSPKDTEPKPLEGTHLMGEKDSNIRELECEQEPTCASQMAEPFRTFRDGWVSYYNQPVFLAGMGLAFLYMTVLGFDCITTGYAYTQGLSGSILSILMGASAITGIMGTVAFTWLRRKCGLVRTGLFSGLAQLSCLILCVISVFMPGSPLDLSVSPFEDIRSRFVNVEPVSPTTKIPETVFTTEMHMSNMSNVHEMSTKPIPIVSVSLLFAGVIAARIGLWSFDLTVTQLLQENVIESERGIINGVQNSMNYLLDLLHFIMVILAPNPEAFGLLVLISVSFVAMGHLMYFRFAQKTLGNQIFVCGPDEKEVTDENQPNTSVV
Source text: This cellular assay allows quantification of the binding of hepcidin to ferroportin (Fpn) through microscopic detection of internalization of a fluorescently labeled hepcidin into J774 cells. […] Binding of hepcidin to Fpn triggers internalization and degradation of both hepcidin and Fpn. However, the TMR (6-carboxytetramethylrhodamine) fluorophore attached to hepcidin remains associated with the cell after degradation of the hepcidin peptide backbone. Therefore, microscopic detection of cell-associated TMR fluorescence is a measure of hepcidin binding to Fpn and internalization of hepcidin and Fpn. If TMR-hepcidin is prevented from binding to Fpn, cellular TMR fluorescence remains low (Dürrenberger et al, 2013). The effect of small molecular weight Fpn inhibitor compounds in this assay was evaluated in vitro as described below.
After overnight incubation, cells were washed 3 times with pre-warmed DMEM w/o phenol red, 30 μl/well of DMEM w/o phenol red was added after the final wash and 10 μl/well of dilution series of test compounds were added in triplicates. […] Cells were incubated in a total volume of 50 μl at 37° C. with 5% CO2 for 2 hours, then Hoechst 33342 dye was added to a final concentration of 0.5 μg/ml to stain nuclei and further incubated for 10 min. at 37° C. with 5% CO2. Cells were washed 3 times with PBS and fixed in 100 μl of 4% paraformaldehyde in PBS for 15 min. at room temperature. After removal of the paraformaldehyde solution, cells were washed 3 times with PBS leaving 100 μl per well and the plates were sealed with foil plate seal. TMR (530-550 nm excitation/575-625 nm emission/400 ms exposure time) and Hoechst 33342 (360-370 nm excitation/420-460 nm emission/10 ms exposure time) fluorescence images were acquired using a ScanR plate imager (Olympus) with a 20× high NA objective. Four pictures were acquired per well and fluorescence channel covering ca. 1500 cells per well. The acquired image data was analysed with the ScanR image analysis software. Image analysis included detection of nuclei (Hoechst 33342 fluorescence), identification of cell-associated regions, application of a virtual channel and thresholding for rolling-ball-type background reduction, followed by application of the Sum(Mean) algorithm to measure the TMR fluorescence associated with cells as a quantitative measure for internalized TMR-hepcidin. IC50 values were calculated with the Sum(Mean) raw data using “log(inhibitor) vs. response” curve fitting of Prism 5 software (GraphPad Software Inc., version 5.02).

[2] = target: T2, human Fpn (Homo sapiens, UniProt Q9NP59); experiment: Biophysical Ferroportin-Hepcidin Binding Assay (fluorescence polarization); conditions: average (AVE) of multiple measurements; TMR-hepcidin binding to purified human Fpn; read-out: FP IC50
T2 construct: FLAG (C); made in house; host or cells: Pichia pastoris
T2 sequence (Q9NP59 1-571): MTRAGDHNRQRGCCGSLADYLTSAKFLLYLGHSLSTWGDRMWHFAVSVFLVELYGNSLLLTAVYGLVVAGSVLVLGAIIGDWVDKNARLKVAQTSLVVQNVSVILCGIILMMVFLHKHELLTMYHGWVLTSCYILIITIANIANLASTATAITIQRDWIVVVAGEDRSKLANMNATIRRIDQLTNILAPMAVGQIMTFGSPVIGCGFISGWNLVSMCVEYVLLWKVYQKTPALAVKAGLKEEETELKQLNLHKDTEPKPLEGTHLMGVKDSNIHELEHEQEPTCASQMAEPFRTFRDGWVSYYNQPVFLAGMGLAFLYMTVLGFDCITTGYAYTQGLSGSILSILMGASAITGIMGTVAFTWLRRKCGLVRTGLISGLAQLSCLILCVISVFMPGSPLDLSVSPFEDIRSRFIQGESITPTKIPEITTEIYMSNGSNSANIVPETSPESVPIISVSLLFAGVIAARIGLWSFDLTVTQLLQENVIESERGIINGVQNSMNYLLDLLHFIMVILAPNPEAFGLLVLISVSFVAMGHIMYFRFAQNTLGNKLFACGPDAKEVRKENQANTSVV
Procedure: This biophysical assay was developed to confirm inhibition of hepcidin binding to ferroportin (Fpn) more directly. Incubation of TMR-hepcidin with purified human Fpn isolated from Pichia pastoris yeast cells expressing human Fpn with a C-terminal FLAG affinity tag (Bonaccorsi di Patti, 2014) leads to increased fluorescence polarization (FP) of the TMR-hepcidin ligand. Small molecular weight Fpn inhibitors were tested for inhibition of binding of TMR-hepcidin to Fpn, as detected by dose-dependent decrease of the TMR FP signal, as described in detail below.
A mixture of […] human Fpn and 30 nM TMR-hepcidin in FP assay buffer containing 50 mM Tris-HCl pH 7.3, 200 mM NaCl, 0.02% DDM, 0.1% BSA was plated into a 384 well black low volume round bottom plate (Corning, Cat. 3677) at 16 μl per well. 8 μl of serial dilutions of test compounds were added in duplicates to reach final Fpn and TMR-hepcidin concentrations of […] and 20 nM, respectively. Plates were incubated for 90 minutes at room temperature and parallel (S) and perpendicular (P) fluorescence was measured in a Synergy H1 fluorescence reader (BioTek). FP values were calculated in mP according to the following formula.

[3] = test system: anemic Wistar rats; experiment: Prevention of iron absorption in anemic rats; format: in vivo, rat; conditions: 1 h before 0.5 mg/kg ferrous sulfate
Procedure: To assess the in vivo efficacy of ferroportin (Fpn) inhibitors to block iron absorption, a series of Fpn inhibitors were tested in an anemic rat model for iron absorption. Wistar rats (3-4 weeks old, n=5, Janvier Labs) were fed a low iron diet (Provimi-Kliba, Cat. 2039) until their hemoglobin (Hb) values reach 7-8 g/dl one day before dosing of the Fpn inhibitor compounds. One hour before oral application of 0.5 mg/kg of ferrous sulfate, test compounds formulated in methyl cellulose or Cremophor were dosed orally. Blood samples were taken by tail vein puncture one hour before administration of iron (−1 h), immediately after dosing of the Fpn inhibitors (0 h) and one hour (1 h), three hours (3 h) and occasionally up to 6 hours (6 h) after dosing of the test compounds. Serum iron levels were measured (Abbott Diagnostics, Cat. 6K95) and inhibition of the rise of serum iron three hours after dosing of the test compound was calculated as a measure for efficacy of the Fpn inhibitors in blocking iron absorption (Table 7).

[4] = target: T1, ferroportin (Fpn); experiment: Ferroportin Ubiquitination and Degradation (immunoprecipitation, Western blot, J774 cells); format: cell-based; design: key: +: comparable to hepcidin; −: no effect; +/−: intermediate effect; conditions: ca. 10-fold IC50 concentration, visual inspection of Western blots
Procedure: Exposure of cells expressing ferroportin (Fpn) to hepcidin is known to trigger ubiquitination and subsequent internalization and degradation of Fpn (Qiao, 2012). The potential of Fpn inhibitors to induce Fpn ubiquitination and degradation was investigated with an immunoprecipitation assay using the J774 mouse macrophage cell line which expresses Fpn upon treatment with iron.
Cells were incubated with synthetic human hepcidin (Bachem, Cat. H-5926) or Fpn inhibitor compounds for 10 min or 120 min. Cells were washed and lysed with ice-cold lysis buffer (Pierce, Life Technologies, Cat. 87787) including 1×HALT protease inhibitor cocktail (Life technologies, Cat. 78429) and 10 mM iodoacetamide (Sigma, Cat. 16125) to stabilize ubiquitinated proteins. Immunoprecipitation was done using the Pierce Classic IP Kit (Life Technologies, Cat. 26146) following the manufacturer's protocol. Briefly, 2 mg protein in 1.25 ml IP lysis buffer was incubated by mixing for 1 h at 4° C. with control agarose beads to pre-clear the lysate and reduce nonspecific signal. Unbound lysate was then incubated overnight with 12 μg per reaction of the affinity purified anti-Fpn antibody F308 that was raised against a GST fusion protein of mouse Fpn amino acids 224-308. Immune complexes were captured by pipetting 14 μl settled Pierce Protein A/G Plus Agarose beads (Life Technologies, Cat. 20423) per reaction and the slurry was incubated for 1.5 h at 4° C. with gentle end-over-end mixing. The beads were washed and immune complexes were eluted directly with 75 μl SDS NuPAGE LDS sample buffer (Life Technologies, Cat. NP0007) containing DTT (Life Technologies, Cat. NP0009). After immunoprecipitation samples were analyzed by Western blotting using a rabbit anti-mouse MTP1 antiserum (Alpha Diagnostic International, Cat. MTP11-A) and a mouse anti-mono- and polyubiquitinylated conjugates monoclonal antibody (Enzo Lifesciences, Cat. BML-PW8810) for detection of ferroportin and ubiquitin, respectively. Mouse monoclonal anti-rabbit IgG light chain (Abcam, Cat. ab99697) and anti-mouse IgG H&L (Abcam, Cat. ab6789) HRP conjugates were used as secondary antibodies.
A selection of eleven Fpn inhibitors were tested in this assay and compared to hepcidin.
Table 5 Summary of Fpn inhibitors tested in the Fpn ubiquitination and degradation assay.

[5] = test system: naïve WT C57BL/6 mice; experiment: Hypoferremia in naïve mice; format: in vivo, mouse; conditions: injection of synthetic hepcidin in WT naïve mice, from the vehicle control, maximal effect at 3-4 hours
Procedure: Female C57BL/6 mice (Janvier, France) at age of 9 weeks were fed a standard diet (Harlan Provimi Kliba 3436) and treated per os (p.o.) with compounds or the corresponding amount of vehicle at a volume of 10 ml/kg body weight. Fpn inhibitors were formulated in 0.5% methylcellulose/water or 20% cremophor EL/water and dosed p.o. in mice at 10, 30 or 100 mg/kg body weight. Three hours later, mice were pre-terminally anesthetized in isoflurane chambers and blood was collected by retro-orbital bleeding. Mice were sacrificed by cervical dislocation and spleens, livers and duodena were harvested and used for biomarker analysis. All experiments have been conducted in compliance with the license approved by the responsible veterinarian authorities. Serum was isolated by centrifugation of blood into gel-containing microtainers and serum iron was determined by the MULTIGENT Iron assay (Abbott Diagnostics, 6K95). Eight mice per group were used and one-way ANOVA with Bonferroni's multiple comparison test was performed to analyze the statistical differences between the experimental groups.
Relative serum iron reduction at 3 h after dosing was calculated by subtracting the average of serum iron values of animals dosed with the Fpn inhibitor from that of vehicle-treated animals. The difference in average serum iron values between vehicle and compound treated groups was then divided by the average of serum iron of the vehicle control group and listed as percentage.

Structure (SMILES) | IC50 [1] | IC50 [2] | Fpn Degradation (120 min.) [4] | Fpn Ubiquitination (10 min.) [4] | also measured
O=C(NCc1ccccn1)c1csc2c1CCN(CCc1nc3ccccc3[nH]1)C2 [Example 49] | 30.6 µM | 24 µM | – | – | –
Cc1cccnc1CNC(=O)c1csc(CCNCc2nc3ccccc3[nH]2)n1 [Example 55] | 0.015 µM | – | – | – | Serum Iron Inhibition (%) at 3 h ([3]; Dose 3 mg/kg oral): 54*** %; Serum Iron Inhibition (%) at 3 h ([3]; Dose 10 mg/kg oral): 72*** %
O=C(NCc1ncccc1F)c1coc(CCNCc2nc3ccccc3[nH]2)n1 [Example 126] | – | – | + | +/− | –
O=C(NCc1ccccc1F)c1coc(C2CN(CCCc3nc4ccccc4[nH]3)C2)n1 [Example 233] | 16 µM | 6.78 µM | – | – | –
CC[C@H](C)[C@@H]1NC(=O)[C@@H](NC(=O)[C@@H](NC(=O)[C@@H]2CCCN2C(=O)[C@H](Cc2ccccc2)NC(=O)[C@H](Cc2c[nH]cn2)NC(=O)[C@@H](NC(=O)[C@@H](N)CC(=O)O)[C@@H](C)O)[C@@H](C)CC)CSSC[C@@H](C(=O)N[C@@H](CCCCN)C(=O)N[C@H](C(=O)O)[C@@H](C)O)NC(=O)[C@@H]2CSSC[C@@H]3NC(=O)[C@@H]4CSSC[C@H](NC(=O)[C@H](Cc5ccccc5)NC1=O)C(=O)N[C@@H](CSSC[C@H](NC(=O)[C@H](CCCCN)NC(=O)[C@H](CO)NC(=O)[C@H](CCCNC(=N)N)NC(=O)[C@H](Cc1c[nH]cn1)NC3=O)C(=O)NCC(=O)N[C@@H](CCSC)C(=O)N2)C(=O)NCC(=O)N4 [hepcidin, reference compound] | – | – | + | + | reduction of serum iron levels [5]: 40-50%
